The term melting point denotes the temperature, or range, at which the solid turns liquid. As a reminder, the IC50 is the concentration needed to halve the response being measured. Low readings indicate greater potency, high ones weaker potency.

Our source for the CC50, melting point and IC50 values is patent US8158631B2, “Heterocyclic antiviral compounds” (Roche Palo Alto LLC, priority 2009, dated 2012).

One data set can be described thus: in vitro. Particulars: human.
Data set [1] deals with T1, HCV polymerase (NS5B570n-Con1) (Hepatitis C virus genotype 1b, UniProt Q9WMX2).
T1 construct: contains a 21 amino acid deletion at the C-terminus relative to the full-length HCV polymerase; made in house; host or cells: E. coli strain BL21(DE) pLysS, plasmid pET17b
The experiment in a line: HCV NS5B RNA polymerase activity (HCV Polymerase Assay). The data set is classed as biochemical, HCV Con1 strain. How it is done: The enzymatic activity of HCV polymerase (NS5B570n-Con1) was measured as the incorporation of radiolabeled nucleotide monophosphates into acid insoluble RNA products. Unincorporated radiolabeled substrate was removed by filtration and scintillant was added to the washed and dried filter plate containing radiolabeled RNA product. The amount of RNA product generated by NS5B570-Con1 at the end of the reaction was directly proportional to the amount of light emitted by the scintillant.
The N-terminal 6-histidine tagged HCV polymerase, derived from HCV Con1 strain, genotype 1b (NS5B570n-Con1) contains a 21 amino acid deletion at the C-terminus relative to the full-length HCV polymerase and was purified from E. coli strain BL21(DE) pLysS. The construct, containing the coding sequence of HCV NS5B Con1 (GenBank accession number AJ242654) was inserted into the plasmid construct pET17b, downstream of a T7 promoter expression cassette and transformed into E. coli. A single colony was grown overnight as a starter culture and later used inoculate 10 L of LB media supplemented with 100 μg/mL ampicillin at 37° C. Protein expression was induced by the addition of 0.25 mM isopropyl-β-D-thiogalactopyranoside (IPTG) when optical density at […] of the culture was between 0.6 and 0.8 and cells were harvested after 16 to 18 h at 30° C. NS5B570n-Con1 was purified to homogeneity using a three-step protocol including subsequent column chromatography on Ni-NTA, SP-Sepharose HP and Superdex 75 resins.
Each 50 μL enzymatic reaction contained 20 nM RNA template derived from the complementary sequence of the Internal Ribosome Entry Site (cIRES), 20 nM NS5B570n-Con1 enzyme, 0.5 μCi of tritiated UTP (Perkin Elmer catalog no. TRK-412; specific activity: 30 to 60 Ci/mmol; stock solution concentration from 7.5×10^−5 M to 20.6×10^−6 M), 1 μM each ATP, CTP, and GTP, 40 mM Tris-HCl pH 8.0, 40 mM NaCl, 4 mM DTT (dithiothreitol), 4 mM MgCl2, and 5 μL of compound serial diluted in DMSO. Reaction mixtures were assembled in 96-well filter plates (cat #MADVNOB, Millipore Co.) and incubated for 2 h at 30° C. Reactions were stopped by addition of 10% final (v/v) trichloroacetic acid and incubated for 40 min at 4° C. Reactions were filtered, washed with 8 reaction volumes of 10% (v/v) trichloroacetic acetic acid, 4 reaction volumes of 70% (v/v) ethanol, air dried, and 25 μL of scintillant (Microscint 20, Perkin-Elmer) was added to each reaction well.
The amount of light emitted from the scintillant was converted to counts per minute (CPM) on a Topcount® plate reader (Perkin-Elmer, Energy Range: Low, Efficiency Mode Normal, Count Time: 1 min, Background Subtract: none, Cross talk reduction: Off).
Data was analyzed in Excel® (Microsoft®) and ActivityBase® (Idbs®). The reaction in the absence of enzyme was used to determine the background signal, which was subtracted from the enzymatic reactions. Positive control reactions were performed in the absence of compound, from which the background corrected activity was set as 100% polymerase activity. All data was expressed as a percentage of the positive control.
The compound concentration at which the enzyme-catalyzed rate of RNA synthesis was reduced by 50% (IC50) was calculated by fitting equation (i) to the data where“Y”
[formula] corresponds to the relative enzyme activity (in %), “% Min” is the residual relative activity at saturating compound concentration, “% Max” is the relative maximum enzymatic activity, “X” corresponds to the compound concentration, and “S” is the Hill coefficient (or slope).

The subject of data set [2] is HCV replicon cells (2209-23), genotype 1b replicon in Huh7 cells. The experiment in a line: HCV replicon assay (Renilla luciferase reporter). The class given is cell-based, HCV genotype 1b; human hepatoma Huh7 cells. The following applies: Hepatitis C virus, Huh-7, 72 h, 2209-23 cells, three days incubation.

Molecule `COc1c(/C=C/c2ccc(NS(C)(=O)=O)cc2)cc(-n2ccncc2=O)cc1C(C)(C)C` [Compound I-13] registered a melting point of 214 to 216 °C. For the same molecule, the CC50 in the data set “in vitro” was 21400 nM. In addition, in data set [1], the IC50 was determined as 0.31 nM. Also, the IC50 in data set [2] worked out at 18.6 nM.

As to `COc1c(/C=C/c2ccc(NS(C)(=O)=O)cc2)cc(N2CCC(C)(C)NC2=O)cc1C(C)(C)C` [Compound I-5, N-(4-{(E)-2-[3-tert-Butyl-5-(4,4-dimethyl-2-oxo-tetrahydro-pyrimidin-1-yl)-2-methoxy-phenyl]-vinyl}-phenyl)-methanesulfonamide], the CC50 in the data set “in vitro” was found to be 13800 nM. Moreover, the values for the half-inhibitory concentration (IC50) in data set [1] and in data set [2] were 1 nM and 19 nM, respectively.
